Experimental data: paper PMC6874179, “Development of Macrocycle Kinase Inhibitors for ALK2 Using Fibrodysplasia Ossificans Progressiva‐Derived Endothelial Cells” (JBMR Plus, 2019)

Columns and labels:
Type in all cases: biochemical
PBK = target: T1, PBK (Homo sapiens, UniProt Q96KB5); experiment: Proqinase Kinase profiling; details: read-out: % inhibition at 100nM
T1 construct: purchased DiscoverX

MINK1 = target: T2, MINK1 (Homo sapiens, UniProt Q8N4C8); experiment: Proqinase Kinase profiling; details: read-out: % inhibition at 100nM
T2 construct: purchased DiscoverX

DMPK = target: T3, DMPK (Homo sapiens, UniProt Q09013); experiment: Proqinase Kinase profiling; details: read-out: % inhibition at 100nM
T3 construct: purchased DiscoverX

SGK1 = target: T4, SGK1 (Homo sapiens, UniProt O00141); experiment: Proqinase Kinase profiling; details: read-out: % inhibition at 100nM
T4 construct: purchased DiscoverX

MUSK = target: T5, MUSK (Homo sapiens, UniProt O15146); experiment: Proqinase Kinase profiling; details: read-out: % inhibition at 100nM
T5 construct: purchased DiscoverX

KIT_D816H = target: T6, KIT_D816H (Homo sapiens, UniProt P10721, D816H); experiment: Proqinase Kinase profiling; details: read-out: % inhibition at 100nM
T6 construct: purchased DiscoverX

MET_D1228H = target: T7, MET_D1228H (Homo sapiens, UniProt P08581, D1228H); experiment: Proqinase Kinase profiling; details: read-out: % inhibition at 100nM
T7 construct: purchased DiscoverX

CDK6_cyclinD1 = target: T8, CDK6_cyclinD1 (Homo sapiens, UniProt Q00534); experiment: Proqinase Kinase profiling; details: read-out: % inhibition at 100nM
T8 construct: purchased DiscoverX

RET_Y791F = target: T9, RET_Y791F (Homo sapiens, UniProt P07949, Y791F); experiment: Proqinase Kinase profiling; details: read-out: % inhibition at 100nM
T9 construct: purchased DiscoverX

MAP3K14 = target: T10, MAP3K14 (Homo sapiens, UniProt Q99558); experiment: Proqinase Kinase profiling; details: read-out: % inhibition at 100nM
T10 construct: purchased DiscoverX

TEC = target: T11, TEC (Homo sapiens, UniProt P42680); experiment: Proqinase Kinase profiling; details: read-out: % inhibition at 100nM
T11 construct: purchased DiscoverX

ACVR2A = target: T12, ACVR2A (Homo sapiens, UniProt P27037); experiment: Proqinase Kinase profiling; details: read-out: % inhibition at 100nM
T12 construct: T7 phage fusion (or DNA tag for qPCR if made in HEK-293); purchased DiscoverX; host or cells: E. coli (T7 phage) or HEK-293

EPHA5 = target: T13, EPHA5 (Homo sapiens, UniProt P54756); experiment: Proqinase Kinase profiling; details: read-out: % inhibition at 100nM
T13 construct: purchased DiscoverX

MET_F1200I = target: T14, MET_F1200I (Homo sapiens, UniProt P08581, F1200I); experiment: Proqinase Kinase profiling; details: read-out: % inhibition at 100nM
T14 construct: purchased DiscoverX

NLK = target: T15, NLK (Homo sapiens, UniProt Q9UBE8); experiment: Proqinase Kinase profiling; details: read-out: % inhibition at 100nM
T15 construct: purchased DiscoverX

PDGFRA_D842V = target: T16, PDGFRA_D842V (Homo sapiens, UniProt P16234, D842V); experiment: Proqinase Kinase profiling; details: read-out: % inhibition at 100nM
T16 construct: purchased DiscoverX

HIPK4 = target: T17, HIPK4 (Homo sapiens, UniProt Q8NE63); experiment: Proqinase Kinase profiling; details: read-out: % inhibition at 100nM
T17 construct: purchased DiscoverX

KIT_V559D_T670I = target: T18, KIT_V559D_T670I (Homo sapiens, UniProt P10721, T670I/V559D); experiment: Proqinase Kinase profiling; details: read-out: % inhibition at 100nM
T18 construct: purchased DiscoverX

ABL1 = target: T19, ABL1 (Homo sapiens, UniProt P00519); experiment: Proqinase Kinase profiling; details: read-out: % inhibition at 100nM
T19 construct: purchased DiscoverX

CAMK1D = target: T20, CAMK1D (Homo sapiens, UniProt Q8IU85); experiment: Proqinase Kinase profiling; details: read-out: % inhibition at 100nM
T20 construct: purchased DiscoverX

MAPKAPK5 = target: T21, MAPKAPK5 (Homo sapiens, UniProt Q8IW41); experiment: Proqinase Kinase profiling; details: read-out: % inhibition at 100nM
T21 construct: purchased DiscoverX

ADRBK2 = target: T22, ADRBK2 (Homo sapiens, UniProt P35626); experiment: Proqinase Kinase profiling; details: read-out: % inhibition at 100nM
T22 construct: purchased DiscoverX

DYRK1B = target: T23, DYRK1B (Homo sapiens, UniProt Q9Y463); experiment: Proqinase Kinase profiling; details: read-out: % inhibition at 100nM
T23 construct: purchased DiscoverX

CHUK = target: T24, CHUK (Homo sapiens, UniProt O15111); experiment: Proqinase Kinase profiling; details: read-out: % inhibition at 100nM
T24 construct: purchased DiscoverX

RET_S891A = target: T25, RET_S891A (Homo sapiens, UniProt P07949, S891A); experiment: Proqinase Kinase profiling; details: read-out: % inhibition at 100nM
T25 construct: purchased DiscoverX

TEK = target: T26, TEK (Homo sapiens, UniProt Q02763); experiment: Proqinase Kinase profiling; details: read-out: % inhibition at 100nM
T26 construct: purchased DiscoverX

SLK = target: T27, SLK (Homo sapiens, UniProt Q9H2G2); experiment: Proqinase Kinase profiling; details: read-out: % inhibition at 100nM
T27 construct: purchased DiscoverX

NTRK3 = target: T28, NTRK3 (Homo sapiens, UniProt Q16288); experiment: Proqinase Kinase profiling; details: read-out: % inhibition at 100nM
T28 construct: purchased DiscoverX

CSK = target: T29, CSK (Homo sapiens, UniProt P41240); experiment: Proqinase Kinase profiling; details: read-out: % inhibition at 100nM
T29 construct: purchased DiscoverX

TYRO3 = target: T30, TYRO3 (Homo sapiens, UniProt Q06418); experiment: Proqinase Kinase profiling; details: read-out: % inhibition at 100nM
T30 construct: purchased DiscoverX

KIT_V559D = target: T31, KIT_V559D (Homo sapiens, UniProt P10721, V559D); experiment: Proqinase Kinase profiling; details: read-out: % inhibition at 100nM
T31 construct: purchased DiscoverX

KIT_V560G = target: T32, KIT_V560G (Homo sapiens, UniProt P10721, V560G); experiment: Proqinase Kinase profiling; details: read-out: % inhibition at 100nM
T32 construct: purchased DiscoverX

NEK6 = target: T33, NEK6 (Homo sapiens, UniProt Q9HC98); experiment: Proqinase Kinase profiling; details: read-out: % inhibition at 100nM
T33 construct: purchased DiscoverX

CLK2 = target: T34, CLK2 (Homo sapiens, UniProt P49760); experiment: Proqinase Kinase profiling; details: read-out: % inhibition at 100nM
T34 construct: purchased DiscoverX

RET_V804L = target: T35, RET_V804L (Homo sapiens, UniProt P07949, V804L); experiment: Proqinase Kinase profiling; details: read-out: % inhibition at 100nM
T35 construct: purchased DiscoverX

MAPK13 = target: T36, MAPK13 (Homo sapiens, UniProt O15264); experiment: Proqinase Kinase profiling; details: read-out: % inhibition at 100nM
T36 construct: purchased DiscoverX

EGFR_T790M = target: T37, EGFR_T790M (Homo sapiens, UniProt P00533, T790M); experiment: Proqinase Kinase profiling; details: read-out: % inhibition at 100nM
T37 construct: purchased DiscoverX

EPHB2 = target: T38, EPHB2 (Homo sapiens, UniProt P29323); experiment: Proqinase Kinase profiling; details: read-out: % inhibition at 100nM
T38 construct: purchased DiscoverX

FRAP1 = target: T39, FRAP1 (Homo sapiens, UniProt P42345); experiment: Proqinase Kinase profiling; details: read-out: % inhibition at 100nM
T39 construct: purchased DiscoverX

PRKCD = target: T40, PRKCD (Homo sapiens, UniProt Q05655); experiment: Proqinase Kinase profiling; details: read-out: % inhibition at 100nM
T40 construct: purchased DiscoverX

ALK2 wt = ALK2 wt (Homo sapiens, UniProt Q04771); experiment: RBC HotSpot Kinase assay
ACVR1 = target: T41, ACVR1 (Homo sapiens, UniProt Q04771); experiment: Proqinase Kinase profiling; details: read-out: % inhibition at 100nM
T41 construct: purchased DiscoverX

T36 sequence (O15264 whole entry): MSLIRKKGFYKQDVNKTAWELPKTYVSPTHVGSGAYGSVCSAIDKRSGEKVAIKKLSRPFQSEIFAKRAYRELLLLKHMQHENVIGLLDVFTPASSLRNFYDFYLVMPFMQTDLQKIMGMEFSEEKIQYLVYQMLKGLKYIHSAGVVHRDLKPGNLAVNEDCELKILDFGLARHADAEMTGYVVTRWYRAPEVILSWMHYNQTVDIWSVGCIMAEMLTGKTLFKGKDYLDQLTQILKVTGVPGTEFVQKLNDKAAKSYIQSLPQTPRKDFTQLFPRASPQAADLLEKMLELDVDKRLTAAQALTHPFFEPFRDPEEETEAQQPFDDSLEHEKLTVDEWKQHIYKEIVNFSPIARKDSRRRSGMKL
T38 sequence (P29323 19-1055): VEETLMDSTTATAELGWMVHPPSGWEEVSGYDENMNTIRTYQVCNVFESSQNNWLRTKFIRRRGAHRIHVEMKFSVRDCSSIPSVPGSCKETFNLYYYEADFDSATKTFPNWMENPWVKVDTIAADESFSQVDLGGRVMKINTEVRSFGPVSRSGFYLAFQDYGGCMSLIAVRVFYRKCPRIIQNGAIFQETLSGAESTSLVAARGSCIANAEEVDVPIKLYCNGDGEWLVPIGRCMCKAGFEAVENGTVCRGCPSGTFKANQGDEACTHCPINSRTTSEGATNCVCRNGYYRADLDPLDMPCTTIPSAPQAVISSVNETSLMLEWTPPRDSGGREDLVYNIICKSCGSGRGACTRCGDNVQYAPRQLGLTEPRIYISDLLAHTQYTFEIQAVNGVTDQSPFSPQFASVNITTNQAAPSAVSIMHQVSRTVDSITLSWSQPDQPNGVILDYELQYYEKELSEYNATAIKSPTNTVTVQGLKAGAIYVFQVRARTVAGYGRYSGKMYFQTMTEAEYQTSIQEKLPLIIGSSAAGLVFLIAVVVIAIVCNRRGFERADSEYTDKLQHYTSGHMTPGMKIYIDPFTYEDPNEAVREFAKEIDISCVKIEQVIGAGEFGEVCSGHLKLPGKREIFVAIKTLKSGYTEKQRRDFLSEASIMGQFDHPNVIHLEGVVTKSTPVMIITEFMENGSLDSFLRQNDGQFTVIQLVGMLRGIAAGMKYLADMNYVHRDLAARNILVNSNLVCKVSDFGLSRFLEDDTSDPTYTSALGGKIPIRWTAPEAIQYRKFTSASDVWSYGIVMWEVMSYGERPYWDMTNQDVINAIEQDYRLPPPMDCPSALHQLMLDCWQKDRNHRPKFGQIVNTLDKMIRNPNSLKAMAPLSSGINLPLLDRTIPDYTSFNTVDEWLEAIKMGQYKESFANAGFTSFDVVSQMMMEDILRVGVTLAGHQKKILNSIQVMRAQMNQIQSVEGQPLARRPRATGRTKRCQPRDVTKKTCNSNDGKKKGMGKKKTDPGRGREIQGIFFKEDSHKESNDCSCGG
T40 sequence (Q05655 whole entry): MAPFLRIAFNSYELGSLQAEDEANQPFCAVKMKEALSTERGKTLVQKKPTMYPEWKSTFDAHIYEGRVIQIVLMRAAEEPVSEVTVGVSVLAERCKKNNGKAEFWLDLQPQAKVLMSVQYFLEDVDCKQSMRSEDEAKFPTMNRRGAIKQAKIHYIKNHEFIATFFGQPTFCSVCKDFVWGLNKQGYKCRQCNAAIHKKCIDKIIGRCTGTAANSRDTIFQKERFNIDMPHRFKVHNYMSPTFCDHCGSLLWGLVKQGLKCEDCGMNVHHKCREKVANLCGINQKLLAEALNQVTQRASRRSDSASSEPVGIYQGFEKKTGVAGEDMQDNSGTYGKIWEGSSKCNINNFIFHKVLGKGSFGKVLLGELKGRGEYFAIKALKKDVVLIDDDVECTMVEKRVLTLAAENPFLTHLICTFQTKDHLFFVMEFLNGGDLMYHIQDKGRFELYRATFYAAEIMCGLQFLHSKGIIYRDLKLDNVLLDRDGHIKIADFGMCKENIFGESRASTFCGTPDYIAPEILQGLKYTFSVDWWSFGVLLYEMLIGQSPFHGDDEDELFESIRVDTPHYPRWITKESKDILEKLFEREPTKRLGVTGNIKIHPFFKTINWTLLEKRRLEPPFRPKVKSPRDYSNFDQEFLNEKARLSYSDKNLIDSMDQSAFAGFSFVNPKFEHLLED
T24 sequence (O15111 whole entry): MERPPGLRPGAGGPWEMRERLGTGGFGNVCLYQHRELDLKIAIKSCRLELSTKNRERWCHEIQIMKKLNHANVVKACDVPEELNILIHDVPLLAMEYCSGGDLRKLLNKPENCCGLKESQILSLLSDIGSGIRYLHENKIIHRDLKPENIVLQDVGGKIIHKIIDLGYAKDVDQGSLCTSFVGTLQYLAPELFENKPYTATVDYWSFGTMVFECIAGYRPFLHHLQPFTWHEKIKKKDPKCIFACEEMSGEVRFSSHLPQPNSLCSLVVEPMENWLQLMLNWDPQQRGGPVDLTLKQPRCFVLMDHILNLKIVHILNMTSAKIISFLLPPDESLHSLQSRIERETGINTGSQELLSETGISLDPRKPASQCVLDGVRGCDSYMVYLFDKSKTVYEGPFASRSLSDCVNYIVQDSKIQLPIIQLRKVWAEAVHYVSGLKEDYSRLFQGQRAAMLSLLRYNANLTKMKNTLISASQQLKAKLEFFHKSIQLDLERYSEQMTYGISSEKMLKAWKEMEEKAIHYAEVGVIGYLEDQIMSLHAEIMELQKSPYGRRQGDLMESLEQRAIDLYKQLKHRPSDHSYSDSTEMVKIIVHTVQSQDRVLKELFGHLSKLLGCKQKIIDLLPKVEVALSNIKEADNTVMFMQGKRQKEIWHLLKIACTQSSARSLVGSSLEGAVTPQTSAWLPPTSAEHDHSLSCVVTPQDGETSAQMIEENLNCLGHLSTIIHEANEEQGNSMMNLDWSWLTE
T7 sequence (P08581 25-1390 D1228H): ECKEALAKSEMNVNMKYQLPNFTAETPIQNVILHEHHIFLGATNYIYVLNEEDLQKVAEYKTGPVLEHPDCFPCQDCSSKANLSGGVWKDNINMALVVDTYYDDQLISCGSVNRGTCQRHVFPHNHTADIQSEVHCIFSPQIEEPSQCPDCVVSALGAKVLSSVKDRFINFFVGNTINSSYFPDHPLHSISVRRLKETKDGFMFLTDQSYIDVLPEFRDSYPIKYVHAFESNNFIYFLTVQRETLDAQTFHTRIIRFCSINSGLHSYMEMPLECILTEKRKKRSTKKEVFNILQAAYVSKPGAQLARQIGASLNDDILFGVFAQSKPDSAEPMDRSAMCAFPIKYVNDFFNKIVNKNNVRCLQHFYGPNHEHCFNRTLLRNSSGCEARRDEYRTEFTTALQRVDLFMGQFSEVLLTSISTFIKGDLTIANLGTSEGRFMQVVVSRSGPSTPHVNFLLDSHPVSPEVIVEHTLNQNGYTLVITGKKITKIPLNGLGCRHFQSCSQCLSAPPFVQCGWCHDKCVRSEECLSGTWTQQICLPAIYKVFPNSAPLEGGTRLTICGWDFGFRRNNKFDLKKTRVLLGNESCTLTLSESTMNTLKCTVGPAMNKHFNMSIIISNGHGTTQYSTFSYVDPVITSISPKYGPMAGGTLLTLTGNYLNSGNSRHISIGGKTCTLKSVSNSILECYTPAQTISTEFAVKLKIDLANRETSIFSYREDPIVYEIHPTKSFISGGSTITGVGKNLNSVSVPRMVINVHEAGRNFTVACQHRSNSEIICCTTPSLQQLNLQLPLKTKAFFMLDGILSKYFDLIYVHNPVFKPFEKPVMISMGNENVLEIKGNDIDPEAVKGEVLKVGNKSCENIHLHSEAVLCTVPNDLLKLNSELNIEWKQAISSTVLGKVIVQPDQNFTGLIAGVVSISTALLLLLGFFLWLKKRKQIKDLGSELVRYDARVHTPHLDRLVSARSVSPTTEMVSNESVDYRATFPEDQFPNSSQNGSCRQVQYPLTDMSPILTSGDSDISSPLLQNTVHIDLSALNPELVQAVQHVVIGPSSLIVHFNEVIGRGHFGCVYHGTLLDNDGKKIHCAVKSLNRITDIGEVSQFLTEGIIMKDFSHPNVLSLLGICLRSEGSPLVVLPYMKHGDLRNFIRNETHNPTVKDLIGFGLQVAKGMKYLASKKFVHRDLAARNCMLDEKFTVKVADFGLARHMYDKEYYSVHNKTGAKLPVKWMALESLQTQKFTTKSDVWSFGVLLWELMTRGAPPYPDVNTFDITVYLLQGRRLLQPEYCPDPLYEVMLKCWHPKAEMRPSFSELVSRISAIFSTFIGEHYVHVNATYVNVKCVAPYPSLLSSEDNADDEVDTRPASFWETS
T4 sequence (O00141 whole entry): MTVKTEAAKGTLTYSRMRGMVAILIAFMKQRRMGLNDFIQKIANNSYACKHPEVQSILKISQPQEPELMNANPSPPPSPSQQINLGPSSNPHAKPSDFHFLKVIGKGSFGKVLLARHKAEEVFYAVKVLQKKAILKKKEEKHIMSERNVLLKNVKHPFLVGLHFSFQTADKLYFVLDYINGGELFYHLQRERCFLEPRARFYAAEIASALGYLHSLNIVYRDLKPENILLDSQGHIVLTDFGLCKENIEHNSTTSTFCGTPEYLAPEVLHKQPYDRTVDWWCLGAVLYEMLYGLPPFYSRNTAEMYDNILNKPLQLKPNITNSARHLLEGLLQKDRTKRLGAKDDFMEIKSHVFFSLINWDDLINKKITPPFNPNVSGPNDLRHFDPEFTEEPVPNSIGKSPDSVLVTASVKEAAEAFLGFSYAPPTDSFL
Chain of ALK2 wt (Q04771 208-502 limits assumed): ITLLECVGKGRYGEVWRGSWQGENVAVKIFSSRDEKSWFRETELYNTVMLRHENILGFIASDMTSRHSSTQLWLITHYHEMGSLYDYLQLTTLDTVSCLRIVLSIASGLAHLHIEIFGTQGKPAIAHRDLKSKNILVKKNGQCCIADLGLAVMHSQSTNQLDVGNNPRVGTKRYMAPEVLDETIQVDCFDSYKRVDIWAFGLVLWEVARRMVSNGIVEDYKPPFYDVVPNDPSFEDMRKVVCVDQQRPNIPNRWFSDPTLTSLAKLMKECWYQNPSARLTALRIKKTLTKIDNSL

Clc1cc2cc(c1)-c1cnn3ccc(nc13)NCCOCCO2 [OD36]
inhibition at 0.1 µM (PBK): 19% | inhibition at 0.1 µM (MINK1): 5% | inhibition at 0.1 µM (DMPK): 2% | inhibition at 0.1 µM (SGK1): 16% | inhibition at 0.1 µM (MUSK): -1% | inhibition at 0.1 µM (KIT_D816H): 32% | inhibition at 0.1 µM (MET_D1228H): 8% | inhibition at 0.1 µM (CDK6_cyclinD1): -5% | inhibition at 0.1 µM (RET_Y791F): 30% | inhibition at 0.1 µM (MAP3K14): 10% | inhibition at 0.1 µM (TEC): 6% | inhibition at 0.1 µM (ACVR2A): 15% | inhibition at 0.1 µM (EPHA5): 10% | inhibition at 0.1 µM (MET_F1200I): 4% | inhibition at 0.1 µM (NLK): 33% | inhibition at 0.1 µM (PDGFRA_D842V): 47% | inhibition at 0.1 µM (HIPK4): 47% | inhibition at 0.1 µM (KIT_V559D_T670I): 7% | inhibition at 0.1 µM (ABL1): 3% | inhibition at 0.1 µM (CAMK1D): 6% | inhibition at 0.1 µM (MAPKAPK5): 12% | inhibition at 0.1 µM (ADRBK2): 0% | inhibition at 0.1 µM (DYRK1B): 13% | inhibition at 0.1 µM (CHUK): 20% | inhibition at 0.1 µM (RET_S891A): 63% | inhibition at 0.1 µM (TEK): 6% | inhibition at 0.1 µM (SLK): 13% | inhibition at 0.1 µM (NTRK3): 17% | inhibition at 0.1 µM (CSK): -4% | inhibition at 0.1 µM (TYRO3): 5% | inhibition at 0.1 µM (KIT_V559D): 15% | inhibition at 0.1 µM (KIT_V560G): 19% | inhibition at 0.1 µM (NEK6): -7% | inhibition at 0.1 µM (CLK2): 10% | inhibition at 0.1 µM (RET_V804L): -10% | inhibition at 0.1 µM (MAPK13): 15% | inhibition at 0.1 µM (EGFR_T790M): -14% | inhibition at 0.1 µM (EPHB2): -2% | inhibition at 0.1 µM (FRAP1): 14% | inhibition at 0.1 µM (PRKCD): 4% | IC50 (ALK2 wt): 47 nM | inhibition at 0.1 µM (ACVR1): 95%

Cc1cc2cc(c1)-c1cnn3ccc(nc13)NCCNC(=O)CCN(C)C2 [OD52]
inhibition at 0.1 µM (PBK): -5% | inhibition at 0.1 µM (MINK1): -11% | inhibition at 0.1 µM (DMPK): -5% | inhibition at 0.1 µM (SGK1): 22% | inhibition at 0.1 µM (MUSK): -11% | inhibition at 0.1 µM (KIT_D816H): -14% | inhibition at 0.1 µM (MET_D1228H): -11% | inhibition at 0.1 µM (CDK6_cyclinD1): 2% | inhibition at 0.1 µM (RET_Y791F): 30% | inhibition at 0.1 µM (MAP3K14): -23% | inhibition at 0.1 µM (TEC): 0% | inhibition at 0.1 µM (ACVR2A): 14% | inhibition at 0.1 µM (EPHA5): -1% | inhibition at 0.1 µM (MET_F1200I): -4% | inhibition at 0.1 µM (NLK): 1% | inhibition at 0.1 µM (PDGFRA_D842V): 17% | inhibition at 0.1 µM (HIPK4): 10% | inhibition at 0.1 µM (KIT_V559D_T670I): -8% | inhibition at 0.1 µM (ABL1): 0% | inhibition at 0.1 µM (CAMK1D): -4% | inhibition at 0.1 µM (MAPKAPK5): 26% | inhibition at 0.1 µM (ADRBK2): -3% | inhibition at 0.1 µM (DYRK1B): -6% | inhibition at 0.1 µM (CHUK): 0% | inhibition at 0.1 µM (RET_S891A): 84% | inhibition at 0.1 µM (TEK): -7% | inhibition at 0.1 µM (SLK): 10% | inhibition at 0.1 µM (NTRK3): 24% | inhibition at 0.1 µM (CSK): -6% | inhibition at 0.1 µM (TYRO3): -7% | inhibition at 0.1 µM (KIT_V559D): -6% | inhibition at 0.1 µM (KIT_V560G): -21% | inhibition at 0.1 µM (NEK6): -12% | inhibition at 0.1 µM (CLK2): 1% | inhibition at 0.1 µM (RET_V804L): -8% | inhibition at 0.1 µM (MAPK13): 3% | inhibition at 0.1 µM (EGFR_T790M): -17% | inhibition at 0.1 µM (EPHB2): 15% | inhibition at 0.1 µM (FRAP1): -1% | inhibition at 0.1 µM (PRKCD): 2% | IC50 (ALK2 wt): 72 nM | inhibition at 0.1 µM (ACVR1): 90%
